This note sets out measurements from patent US20130336940A1, “MODIFIED PIG ISLETS FOR DIABETES TREATMENT” (UNIVERSITE CATHOLIQUE DE LOUVAIN, priority 2011, published 2013).

For one experiment, the system named is pig pancreas. The experiment can be described thus: Pancreatic hormonal content for insulin/glucagon (RIA) after STZ. Type of experiment: in vivo. The procedure: Five doses (0, 30, 50, 75, 100 mg/kg) of filter-sterilized Streptozotocin (STZ) (Sigma, Bornem, Belgium) were tested. STZ was solubilised in citrate buffer (25% v/v Na citrate, 23% v/v citric acid, 52% v/v H2O, pH 4.5) and filtered before injection in the external jugular vein (Dufrane, Transplantation, 2006).
For pancreatic hormonal content, insulin and glucagon were first extracted from small biopsies of pancreas taken in the 3 zones (head, body, tail) before being quantified by radio immuno assay (RIA).
For the extraction, ˜1 g of pancreas was cut into small fragments (˜1-2 mm^3) and 5 mL of a solution composed of 75.75% CH3CH2OH, 24.22% H2O, 0.03% HCl were added. The following steps were performed with the samples kept on ice. Samples were mixed (Ultra-Turrax T25 [Janke & Kunkel IKA—Labortechnik, Staufen, Germany]) for 20 seconds 4 times and 5 mL of a solution of 75% CH3CH2OH, 22% H2O, 3% HCl were added to the mixture. The samples were then sonicated 4×20 seconds (Sonifier B 12 [Branson Sonic Power Company, Danbury, Conn., USA]) and centrifugated 10 minutes at 4° C. at 1500 rpm. The first supernatant formed was removed and kept at −20° C. 2 mL of a solution of 75% CH3CH2OH, 23.5% H2O, 1.5% HCl were added to the precipitate and a second step of sonication was performed. The samples were then kept at −20° C. overnight. After a step of centrifugation 10 minutes at 4° C. at 1500 rpm, the second supernatant was removed and kept at −20° C. Thereafter, 2 mL of a solution of 75% CH3CH2OH, 23.5% H2O, 1.5% HCl were added to the precipitate and the mixture was sonicated and centrifuged 10 minutes at 4° C. at 1500 rpm and the third supernatant removed. The three supernatants were then pooled and constituted the pancreas extract. […] The supernatants were immediately removed and the contents of insulin and glucagon were determined by a Wallac Wizard 1470 Automatic gamma counter (GMI Inc, Ramsey, Minn., USA) for 1 minute.

For the next experiment, the system named is isolated pig islets. The experiment in a line: Islet structure after isolation (histology of isolated islets from STZ-treated pigs). The class given is in vivo. As to conditions: for proportion of beta-cells in islets: mean±SD, native 91.47±1.19. The procedure: (ii) Young pig islets treated with selected doses of STZ (0, 30, 50 mg/kg) were isolated following a method previously described by Dufrane et al, Xenotransplantation, 2006. Briefly, after being completely dissected, the pancreas were digested by a modified static digestion method: infusion of the pancreas with Liberase DL Research Grade (Roche/Boehringer Mannheim, Brussels, Belgium; 0.43 mg/mL) dissolved in modified UW solution; placement in a sterile 1 L Nalgene jar for digestion by static incubation at 37° C. for 30-50 minutes; filtration in a 500 μm filter; purification in a ficoll grade (densities 1.090, 1.060 and 1.010) (Mediatech Cellgro); washing and suspension of the islets in Ham-F10 (Gibco)+10% New Born Calf Serum (NCS; Merck-Eurolab, Overijse, Belgium).
The cellular composition of human and pig isolated islets was determined by immunohistochemistry. After overnight fixation in formol at room temperature, aliquots of islet preparations were embedded in paraffin and cut in 5 μm sections. Insulin and glucagon staining were performed as described above.
Alpha and β cells proportion and localization (for pig and human) inside islets were compared in isolated islets from 0, 30 and 50 mg/kg STZ pigs in 3 groups of 5 islets (50-99, 100-149 and 150-200 μm).

Where [1] appears, read: STZ 30 mg/kg, isolated islets of 50-150 μm.
Where [2] appears, read: STZ 50 mg/kg, isolated islets of 50-150 μm.
Where [3] appears, read: STZ 50 mg/kg, isolated islets of each size.

As to `CN(N=O)C(=O)N[C@H]1C(O)O[C@H](CO)[C@@H](O)[C@@H]1O` (mixture of isomers) [STZ, Streptozotocin], the “theoretical reduction of the pancreatic insulin content” value in the experiment with pig pancreas (STZ 30 mg/kg, by linear regression) amounted to 30%. Also, in the experiment on pig pancreas (STZ 30/50/75 mg/kg, 3 months post-STZ treatment), the “pancreatic glucagon content, humans vs treated pigs” value was “higher in humans”. Moreover, the pancreatic insulin content result in the experiment on pig pancreas (STZ 75-100 mg/kg) is on record as “significant reduction”. For the same compound, in the experiment on isolated pig islets (setting [1]), the “number of alpha cells per islet in comparison to humans” value is “higher number of alpha cells” and the “proportion of beta-cells in islets” value is given as 60.46±3.70. For the same compound, the “proportion of alpha cells per islet in comparison to humans” value with isolated pig islets (STZ 30 mg/kg, isolated islets of 100-150 μm) is on record as “higher proportion of alpha cells”. Further, the “number of beta cells per islet in comparison to humans” value in the experiment on isolated pig islets (STZ 30 mg/kg, isolated islets of 100-200 μm) is given as “higher number of beta cells”. In the experiment with isolated pig islets (setting [2]), the “number of beta cells in comparison to humans” value is “higher” and the “proportion of beta-cells in islets” value came out at 60.46±4.55. In addition, in the experiment on isolated pig islets (setting [3]), the “alpha cell proportion in comparison to humans” value is given as “higher alpha cell proportion” and the “number of alpha cells per islet in comparison to humans” value is “higher number of alpha cells”. In the experiment on isolated pig islets (STZ 50 mg/kg, large isolated islets (150-200 μm)), the “number of beta cells in comparison to humans” value is “similar”. Besides, in the experiment on isolated pig islets (STZ 30-50 mg/kg), the “decrease of β-cells (proportion)” value turned out to be 30%, the “increase of α-cells” value is roughly 300%, the “α-cells in remodeled pig islet” value came to 30% and the “β-cells in remodeled pig islet” value is 60%.
